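Grown in 96-well plates, cells were treated for 48 hours with each compound at five concentrations. Insufficient inhibition: endpoint recorded as highest concentration tested. At the GI50, growth is halved.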 Active and inactive are the calls of the source. Cut-off read from the data, not from the text of the source: active = GI50 up to about 1.1 µM and inactive = higher.
What was measured:
Test in all cases: NCI-60 cell line screen, 48 h
SR = tested on: SR
A549 = tested on: A549
SNB-75 = tested on: SNB-75
SNB-19 = tested on: SNB-19
IGROV-1 = tested on: IGROV-1
KM12 = tested on: KM12
U-251 = tested on: U-251
COLO 205 = tested on: COLO 205
SN12C = tested on: SN12C
SK-MEL-5 = tested on: SK-MEL-5
MOLT-4 = tested on: MOLT-4
SK-MEL-28 = tested on: SK-MEL-28
K562 = tested on: K562
NCI-H23 = tested on: NCI-H23
HCC 2998 = tested on: HCC 2998
HOP-92 = tested on: HOP-92

Measured: GI50

COc1ccc(N/N=C(\CCN(C)C)c2ccccc2)cc1
inactive: SR 3.17 µM | A549 1.67 µM | SNB-75 8.04 µM | SNB-19 3.01 µM | IGROV-1 4.18 µM | KM12 4.73 µM | U-251 1.79 µM | COLO 205 2.78 µM | SN12C 3.9 µM | SK-MEL-5 6.37 µM | MOLT-4 3.39 µM | SK-MEL-28 2.69 µM | K562 2.39 µM | NCI-H23 4.43 µM

CC(C)(C)c1cc(COc2c3sc(=S)sc3c(OCc3cc(C(C)(C)C)cc(C(C)(C)C)c3)c3sc(=S)sc23)cc(C(C)(C)C)c1
inactive: A549 > 100 µM | SNB-75 > 100 µM | SNB-19 > 100 µM | IGROV-1 > 100 µM | HCC 2998 > 100 µM | U-251 > 100 µM | COLO 205 > 100 µM | SN12C > 100 µM | SK-MEL-5 > 100 µM | MOLT-4 > 100 µM | SK-MEL-28 > 100 µM | K562 > 100 µM | NCI-H23 > 100 µM

c1cnc2c(c1)-n1cccc1C1(CCSC1)NN2 (stereo not given)
inactive: SR > 100 µM | A549 > 100 µM | SNB-75 > 100 µM | SNB-19 > 100 µM | HCC 2998 > 100 µM | KM12 > 100 µM | U-251 > 100 µM | COLO 205 > 100 µM | SN12C > 100 µM | SK-MEL-5 > 100 µM | MOLT-4 > 100 µM | SK-MEL-28 > 100 µM | K562 > 100 µM | NCI-H23 > 100 µM

OCC1CC2C=CCC(C2)C1 (stereo not given)
inactive: SR > 100 µM | A549 > 100 µM | SNB-75 > 100 µM | SNB-19 > 100 µM | IGROV-1 > 100 µM | HOP-92 > 100 µM | KM12 > 100 µM | U-251 > 100 µM | COLO 205 > 100 µM | SN12C > 100 µM | SK-MEL-5 > 100 µM | MOLT-4 > 100 µM | SK-MEL-28 > 100 µM | K562 > 100 µM | NCI-H23 > 100 µM

CCOC(=O)C1(Br)C(c2ccccc2)NC(=O)N(C2OC(COC(=O)c3ccccc3)C(OC(=O)c3ccccc3)C2OC(=O)c2ccccc2)C1(C)Br (stereo not given)
inactive: A549 12.9 µM | SNB-75 13.3 µM | SNB-19 39.9 µM | IGROV-1 34.9 µM | HOP-92 18.1 µM | HCC 2998 91 µM | KM12 21.6 µM | U-251 27.8 µM | COLO 205 24.4 µM | SN12C 34 µM | SK-MEL-5 15.2 µM | MOLT-4 18.2 µM | SK-MEL-28 > 47 µM | K562 8.91 µM | NCI-H23 29.4 µM

COc1nc(NC2OCC(O)C(O)C2O)c(NC2OCC(O)C(O)C2O)c(=O)n1C (stereo not given)
inactive: SR > 100 µM | A549 > 100 µM | SNB-75 > 100 µM | SNB-19 > 100 µM | IGROV-1 > 100 µM | HOP-92 > 100 µM | HCC 2998 > 100 µM | KM12 > 100 µM | U-251 > 100 µM | COLO 205 > 100 µM | SN12C > 100 µM | MOLT-4 > 100 µM | SK-MEL-28 > 100 µM | K562 > 100 µM | NCI-H23 > 100 µM

NCC(=O)OCN1C(=O)C2C3C=CC(C2C1=O)C1C2C(=O)N(COC(=O)CN)C(=O)C2C31 (stereo not given)
inactive: A549 30.1 µM | SNB-75 23.6 µM | SNB-19 71.3 µM | IGROV-1 41.8 µM | HOP-92 94 µM | KM12 22.2 µM | U-251 22 µM | COLO 205 21.4 µM | SN12C 23.3 µM | SK-MEL-5 25.5 µM | MOLT-4 28.9 µM | SK-MEL-28 19.1 µM | K562 30.5 µM | NCI-H23 21.1 µM

N#CC12CCC(O)C(CC1)C2=O (stereo not given)
inactive: SR 27.3 µM | A549 > 100 µM | SNB-75 > 100 µM | SNB-19 > 100 µM | IGROV-1 > 100 µM | HCC 2998 > 100 µM | KM12 > 100 µM | U-251 > 100 µM | COLO 205 87.9 µM | SN12C > 100 µM | SK-MEL-5 > 100 µM | MOLT-4 > 100 µM | SK-MEL-28 > 100 µM | K562 > 100 µM | NCI-H23 > 100 µM

CCCCc1c2c(nc3c1CCc1cc4c(nc1-3)-c1nc3c(c(CCCC)c1CC4)CCC/C3=C\c1ccccc1)/C(=C/c1ccccc1)CCC2
inactive: SR > 100 µM | A549 > 100 µM | SNB-19 35.9 µM | IGROV-1 81.5 µM | HOP-92 > 100 µM | HCC 2998 88.3 µM | KM12 98.9 µM | U-251 47.3 µM | COLO 205 > 100 µM | SN12C > 100 µM | SK-MEL-5 69.7 µM | MOLT-4 > 100 µM | SK-MEL-28 > 100 µM | K562 > 100 µM | NCI-H23 73.5 µM

COc1cc(C)c(C)c(OC(=O)c2c(C)c(C)c(OC)c(C)c2OC)c1C
inactive: SR 4.23 µM | A549 4.11 µM | SNB-75 4.04 µM | SNB-19 15.4 µM | IGROV-1 8.67 µM | HOP-92 7.19 µM | HCC 2998 13.8 µM | KM12 3.31 µM | U-251 3.74 µM | COLO 205 3.18 µM | SN12C 15.7 µM | SK-MEL-5 5.02 µM | MOLT-4 9.31 µM | SK-MEL-28 20.4 µM | K562 3.83 µM | NCI-H23 10.4 µM

CC(=O)OC1=C2CC[C@@H]3C(CC[C@@]4(C)C3CC[C@@H]4OC(C)=O)[C@@]2(C)CC(C#N)C1=O (stereo not given in full)
inactive: A549 30.8 µM | SNB-75 14.5 µM | SNB-19 25.2 µM | IGROV-1 19.2 µM | HOP-92 15.1 µM | HCC 2998 13.3 µM | KM12 30.3 µM | U-251 27.4 µM | COLO 205 20.8 µM | SN12C 28.6 µM | SK-MEL-5 20.2 µM | MOLT-4 23.4 µM | SK-MEL-28 30.3 µM | K562 22.6 µM | NCI-H23 27.9 µM

N#CC1(c2nc3ccccc3o2)C(=O)C(=O)N(c2ccc(Cl)c(Cl)c2)C(=O)C1=O
inactive: A549 > 100 µM | SNB-75 > 100 µM | SNB-19 > 100 µM | HOP-92 12.2 µM | HCC 2998 > 100 µM | KM12 > 100 µM | COLO 205 > 100 µM | SN12C > 100 µM | SK-MEL-5 > 100 µM | MOLT-4 30.3 µM | SK-MEL-28 > 100 µM | K562 71 µM | NCI-H23 > 100 µM

COC(=O)C(Cc1nc2ccccc2nc1O)C(=O)C(=O)Nc1ccc(OC)cc1[N+](=O)[O-] (stereo not given)
inactive: SR > 100 µM | A549 > 100 µM | SNB-19 > 100 µM | IGROV-1 > 100 µM | HOP-92 96.2 µM | HCC 2998 > 100 µM | KM12 > 100 µM | U-251 > 100 µM | COLO 205 > 100 µM | SN12C > 100 µM | SK-MEL-5 > 100 µM | MOLT-4 > 100 µM | SK-MEL-28 > 100 µM | K562 > 100 µM | NCI-H23 > 100 µM

Cc1ccc(NC(=O)C(=O)C(C#N)c2nc(-c3ccc(-c4ccccc4)cc3)cs2)c(C)c1 (stereo not given)
inactive: SR > 100 µM | A549 > 100 µM | SNB-75 > 100 µM | SNB-19 > 100 µM | IGROV-1 > 100 µM | HCC 2998 > 100 µM | U-251 47.3 µM | COLO 205 > 100 µM | SN12C > 100 µM | SK-MEL-5 > 100 µM | MOLT-4 > 100 µM | SK-MEL-28 > 100 µM

CC(C)N1C(C)[C@@H](c2ccccc2)O[P@@]1(=O)CC1=CCCCC1 (stereo not given in full)
inactive: SR 69.5 µM | A549 > 100 µM | SNB-75 > 100 µM | IGROV-1 > 100 µM | HOP-92 45.8 µM | HCC 2998 > 100 µM | KM12 > 100 µM | U-251 > 100 µM | COLO 205 > 100 µM | SN12C > 100 µM | SK-MEL-5 55.6 µM | MOLT-4 80.7 µM | SK-MEL-28 > 100 µM | K562 48.6 µM | NCI-H23 > 100 µM

C[C@]12CCC[C@H](Cl)C1(O)C[C@H](C(=O)O)CC2 (stereo not given in full)
inactive: SR > 100 µM | A549 > 100 µM | SNB-75 > 100 µM | SNB-19 > 100 µM | IGROV-1 > 100 µM | HOP-92 > 100 µM | HCC 2998 > 100 µM | KM12 > 100 µM | U-251 > 100 µM | COLO 205 > 100 µM | SN12C > 100 µM | SK-MEL-5 > 100 µM | MOLT-4 > 100 µM | SK-MEL-28 > 100 µM | K562 > 100 µM | NCI-H23 > 100 µM

NC(CCC(=O)Nc1ccc(O)cc1)C(=O)O (stereo not given)
inactive: SR > 100 µM | A549 > 100 µM | SNB-75 > 100 µM | SNB-19 > 100 µM | HOP-92 > 100 µM | KM12 > 100 µM | U-251 > 100 µM | COLO 205 > 100 µM | SN12C > 100 µM | SK-MEL-5 > 100 µM | MOLT-4 > 100 µM | SK-MEL-28 > 100 µM | K562 > 100 µM

Nc1ccc(N)c2c1C(=O)c1c(N)ccc(N)c1C2=O
inactive: A549 62.7 µM | SNB-75 28.4 µM | SNB-19 47.8 µM | IGROV-1 > 100 µM | HOP-92 36.6 µM | HCC 2998 39.6 µM | KM12 60.8 µM | U-251 50 µM | COLO 205 58.6 µM | SN12C > 63.5 µM | SK-MEL-5 37.8 µM | MOLT-4 25.9 µM | SK-MEL-28 98.6 µM | K562 > 92.9 µM | NCI-H23 > 73.1 µM
